Results published in US6951733B2, “Method for testing drug susceptibility of Mycobacterium tuberculosis” (priority 2000, dated 2005).
“And” between values parts separate entries of the source, which are not always exact repeats. Equal values may be shown once. Read-outs that look alike come from different tables or passages of the source.

Tests used:
[1] = tested on: ten strains previously identified as INH-resistant; assay: microbe, parasite or virus in culture; assay type: cell-based, M. tuberculosis; conditions: Mycobacterium tuberculosis, HSTB agar; greater than 3.2 eight strains, 1.6 one strain
[2] = tested on: 13 M. tuberculosis pan-susceptible strains; assay: MIC determination on HSTB agar, susceptible strains; assay type: cell-based
[3] = tested on: 55 M. tuberculosis clinical isolates; assay type: cell-based
strain H37Rv = assay type: cell-based, M. tuberculosis
strain 9719 [4] = assay: microbe, parasite or virus in culture; assay type: cell-based, M. tuberculosis; conditions: read-out: MIC (μg/ml) BACTEC
strain 9719 [5] = assay type: cell-based, M. tuberculosis; conditions: for Proportions (%%) of resistant bacteria as determined by agar plates containing the drug (μg/ml) 300 / Proportions (%%) of resistant bacteria as determined by agar plates containing the drug (μg/ml) 900 / Proportions (%%) of resistant bacteria as determined by agar plates containing the drug (μg/ml) 1200: strain 9719
[6] = strains Susceptible by the BACTEC 300 μg/ml
[7] = strains Susceptible by the BACTEC 900 μg/ml
[8] = 0% of resistant bacteria incorporated
[9] = 10% of resistant bacteria incorporated
[10] = 25% of resistant bacteria incorporated
[11] = 50% of resistant bacteria incorporated
[12] = 100% of resistant bacteria (resistant mutant)

NNC(=O)c1ccncc1 [INH, isoniazid]
MIC [1]: > 3.2 µg/mL | critical concentration for detection of the high level of resistance [2]: 1.0 µg/mL | critical concentration for detection of the low level of resistance [2]: 0.2 µg/mL

NC(=O)c1cnccn1 [PZA, pyrazinamide]
Number of strains by the agar proportion method, 900 μg/ml Resistant [3]: 27 | Number of strains by the agar proportion method, 1200 μg/ml Resistant [3]: 27 and 26 | Number of strains by the agar proportion method, 900 μg/ml Resistant [3, 6]: 0 | Number of strains by the agar proportion method, 1200 μg/ml Resistant [3, 6]: 0 | Number of strains by the agar proportion method, 900 μg/ml Resistant [3, 7]: 2 | Number of strains by the agar proportion method, 1200 μg/ml Resistant [3, 7]: 1 | MIC (μg/ml) Agar (strain H37Rv): 900 µg/mL and >1200 µg/mL | MIC (strain 9719 [4]; Mycobacterium tuberculosis, 9719, pH 6, strain 9719, 0% of resistant bacteria incorporated): ≤ 100 µg/mL | MIC (strain 9719 [4]; Mycobacterium tuberculosis, 9719, pH 6, strain 9719, 10% of resistant bacteria incorporated): > 900 µg/mL | MIC (strain 9719 [4]; Mycobacterium tuberculosis, 9719, pH 6, strain 9719, 25% of resistant bacteria incorporated): > 900 µg/mL | MIC (strain 9719 [4]; Mycobacterium tuberculosis, 9719, pH 6, strain 9719, 50% of resistant bacteria incorporated): > 900 µg/mL | growth in the agar medium with the drug (strain 9719 [5]; pansusceptible strain 9719, all drug-concentrations (300, 900, 1200 μg/ml)): completely inhibited | Proportions (%%) of resistant bacteria as determined by agar plates containing the drug (μg/ml) 300 (strain 9719 [5]; [8]): 0% | Proportions (%%) of resistant bacteria as determined by agar plates containing the drug (μg/ml) 900 (strain 9719 [5]; [8]): 0% | Proportions (%%) of resistant bacteria as determined by agar plates containing the drug (μg/ml) 1200 (strain 9719 [5]; [8]): 0% | Proportions (%%) of resistant bacteria as determined by agar plates containing the drug (μg/ml) 300 (strain 9719 [5]; [9]): 13.8% | Proportions (%%) of resistant bacteria as determined by agar plates containing the drug (μg/ml) 900 (strain 9719 [5]; [9]): 8.6% | Proportions (%%) of resistant bacteria as determined by agar plates containing the drug (μg/ml) 1200 (strain 9719 [5]; [9]): 8.6% | Proportions (%%) of resistant bacteria as determined by agar plates containing the drug (μg/ml) 300 (strain 9719 [5]; [10]): 18.1% | Proportions (%%) of resistant bacteria as determined by agar plates containing the drug (μg/ml) 900 (strain 9719 [5]; [10]): 16.2% | Proportions (%%) of resistant bacteria as determined by agar plates containing the drug (μg/ml) 1200 (strain 9719 [5]; [10]): 16.5% | Proportions (%%) of resistant bacteria as determined by agar plates containing the drug (μg/ml) 300 (strain 9719 [5]; [11]): 35.9% | Proportions (%%) of resistant bacteria as determined by agar plates containing the drug (μg/ml) 900 (strain 9719 [5]; [11]): 36.9% | Proportions (%%) of resistant bacteria as determined by agar plates containing the drug (μg/ml) 1200 (strain 9719 [5]; [11]): 40.0% | Proportions (%%) of resistant bacteria as determined by agar plates containing the drug (μg/ml) 300 (strain 9719 [5]; [12]): 97.8% | Proportions (%%) of resistant bacteria as determined by agar plates containing the drug (μg/ml) 900 (strain 9719 [5]; [12]): 96.1% | Proportions (%%) of resistant bacteria as determined by agar plates containing the drug (μg/ml) 1200 (strain 9719 [5]; [12]): 86.2%
